Tests used:
[1] = test system: Leishmania donovani; assay: Antileishmanial activity against promastigotes of Leishmania donovani MHOM/IN/60/Dd8 after 72 hrs by luciferase reporter gene assay; type: functional, organism-based; conditions: MHOM/IN/60/Dd8, 72 h
[2] = Oral bioavailability in Sprague-Dawley rat at 10 mg/kg; type: ADME, organism-based; conditions: in vivo
[3] = test system: Rattus norvegicus; assay: Clearance in Sprague-Dawley rat at 5 mg/kg, iv; type: ADME, organism-based; parameters: dose 5 mg/kg, route intravenous; conditions: in vivo
[4] = test system: Rattus norvegicus; assay: Clearance in Sprague-Dawley rat at 10 mg/kg, po; type: ADME, organism-based; parameters: dose 10 mg/kg, route oral; conditions: in vivo
[5] = test system: Rattus norvegicus; assay: Volume of distribution at steady state in Sprague-Dawley rat at 5 mg/kg, iv; type: ADME, organism-based; parameters: dose 5 mg/kg, route intravenous; conditions: in vivo
[6] = test system: Rattus norvegicus; assay: Volume of distribution at steady state in Sprague-Dawley rat at 10 mg/kg, po; type: ADME, organism-based; parameters: dose 10 mg/kg, route oral; conditions: in vivo
[7] = test system: Rattus norvegicus; assay: Mean residence time in Sprague-Dawley rat at 5 mg/kg, iv; type: ADME, organism-based; parameters: dose 5 mg/kg, route intravenous; conditions: in vivo
[8] = Mean residence time in Sprague-Dawley rat at 10 mg/kg, po; type: ADME, organism-based; parameters: dose 10 mg/kg, route oral; conditions: in vivo
[9] = test system: Rattus norvegicus; assay: Elimination half life in Sprague-Dawley rat at 5 mg/kg, iv; type: ADME, organism-based; parameters: dose 5 mg/kg, route intravenous; conditions: in vivo
[10] = Elimination half life in Sprague-Dawley rat at 10 mg/kg, po; type: ADME, organism-based; parameters: dose 10 mg/kg, route oral; conditions: in vivo, read-out: beta t1/2 (converted)
[11] = AUC (0 to t) in Sprague-Dawley rat at 5 mg/kg, iv; type: ADME, organism-based; parameters: dose 5 mg/kg, route intravenous; conditions: plasma
[12] = test system: Rattus norvegicus; assay: AUC (0 to t) in Sprague-Dawley rat at 10 mg/kg, po; type: ADME, organism-based, Plasma; parameters: dose 10 mg/kg, route oral; conditions: in vivo
[13] = Tmax in Sprague-Dawley rat at 5 mg/kg, iv; type: ADME, organism-based; parameters: dose 5 mg/kg, route intravenous; conditions: in vivo
[14] = Tmax in Sprague-Dawley rat at 10 […], po; type: ADME, organism-based; conditions: in vivo
[15] = Cmax in Sprague-Dawley rat at 5 mg/kg, iv; type: ADME, organism-based; parameters: dose 5 mg/kg, route intravenous; conditions: in vivo
[16] = Cmax in Sprague-Dawley rat at 10 mg/kg, po; type: ADME, organism-based; parameters: dose 10 mg/kg, route oral; conditions: in vivo
[17] = target: Albumin (Bos taurus, UniProt P02769); assay: Binding affinity to bovine serum albumin by fluorescence spectrophotometry; type: ADME; conditions: cattle, isolated protein
Chain of Albumin (P02769 whole entry): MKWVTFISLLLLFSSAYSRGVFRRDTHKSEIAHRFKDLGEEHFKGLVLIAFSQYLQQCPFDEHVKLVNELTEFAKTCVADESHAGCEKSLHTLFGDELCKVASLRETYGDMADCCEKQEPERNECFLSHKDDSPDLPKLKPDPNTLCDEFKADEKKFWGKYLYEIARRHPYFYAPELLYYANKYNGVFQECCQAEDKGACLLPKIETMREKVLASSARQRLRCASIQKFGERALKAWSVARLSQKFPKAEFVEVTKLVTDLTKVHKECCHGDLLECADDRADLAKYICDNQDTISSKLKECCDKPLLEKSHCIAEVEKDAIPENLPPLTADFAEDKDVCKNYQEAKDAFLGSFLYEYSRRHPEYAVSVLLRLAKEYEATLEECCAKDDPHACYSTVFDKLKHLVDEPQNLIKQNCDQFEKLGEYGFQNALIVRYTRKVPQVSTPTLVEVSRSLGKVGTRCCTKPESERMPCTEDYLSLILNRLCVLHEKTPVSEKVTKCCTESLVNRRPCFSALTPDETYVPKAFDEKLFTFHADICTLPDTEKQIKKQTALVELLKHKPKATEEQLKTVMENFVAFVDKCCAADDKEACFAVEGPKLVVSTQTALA

[18] = test system: Leishmania donovani; assay: Antileishmanial activity against amastigotes of Leishmania donovani MHOM/IN/60/Dd8 infected in golden hamster assessed as amastigote count at 50 mg/kg/day, ip administered for 5 days measured on day 7 of post last dose by Giemsa staining; type: functional; conditions: MHOM/IN/60/Dd8, ip, route intraperitoneal
[19] = test system: Leishmania; assay: Antileishmanial activity against amastigotes of Leishmania infected mouse J774A1 cells assessed as induction of nitric oxide generation after 24 hrs by ELISA (reference value: 4.65 uM); type: functional, J774.A1
[20] = test system: Leishmania; assay: Antileishmanial activity against amastigotes of Leishmania infected in mouse J-774A.1 cells assessed as decrease in […] production at IC50 after 24 hrs by ELISA relative to control; type: functional, J774.A1
[21] = test system: Leishmania; assay: Antileishmanial activity against amastigotes of Leishmania infected in mouse J-774A.1 cells assessed as decrease in IL-10 production at IC50 after 24 hrs by ELISA relative to control; type: functional, J774.A1
[22] = test system: Leishmania; assay: Antileishmanial activity against amastigotes of Leishmania infected in mouse J-774A.1 cells assessed as increase in TNF-alpha production at IC50 after 24 hrs by ELISA relative to control; type: functional, J774.A1
[23] = Lipophilicity, log P of the compound; type: physicochemical; conditions: octanol/water
[24] = test system: Leishmania; assay: Antileishmanial activity against amastigotes of Leishmania infected in mouse J-774A.1 cells assessed as increase in IL-12 production at IC50 after 24 hrs by ELISA relative to control; type: functional, J774.A1
[25] = Selectivity index, ratio of CC50 for mouse J774A1 cells to IC50 for amastigotes of Leishmania donovani MHOM/IN/60/Dd8 infected in mouse J-774A.1 cells; type: functional, J774.A1
[26] = Cytotoxicity against african green monkey Vero cells after 72 hrs by MTT assay; type: cell-based; conditions: chlorocebus sabaeus
[27] = Cytotoxicity against mouse J774A1 cells after 72 hrs by MTT assay; type: cell-based, J774.A1
[28] = test system: Leishmania donovani; assay: Antileishmanial activity against amastigotes of Leishmania donovani MHOM/IN/60/Dd8 infected in mouse J-774A.1 cells after 72 hrs by luciferase reporter gene assay; type: functional, organism-based; conditions: MHOM/IN/60/Dd8, J774.A1, 72 h
[29] = test system: Leishmania donovani; assay: Ratio of miltefosine IC50 to compound IC50 for amastigotes of Leishmania donovani MHOM/IN/60/Dd8 infected in mouse J-774A.1 cells; type: functional, J774.A1
[30] = test system: Leishmania donovani; assay: Antileishmanial activity against amastigotes of Leishmania donovani MHOM/IN/60/Dd8 infected in golden hamster assessed as amastigote count at 30 mg/kg/day, po administered for 5 days measured on day 7 of post last dose by Giemsa staining; type: functional
[31] = Clearance in Sprague-Dawley rat at 10 mg/kg, iv; type: ADME, organism-based; parameters: dose 10 mg/kg, route intravenous; conditions: in vivo
[32] = Volume of distribution at steady state in Sprague-Dawley rat at 10 mg/kg, iv; type: ADME, organism-based; parameters: dose 10 mg/kg, route intravenous; conditions: in vivo, read-out: Vdss
[33] = Mean residence time in Sprague-Dawley rat at 10 mg/kg, iv; type: ADME, organism-based; parameters: dose 10 mg/kg, route intravenous; conditions: in vivo
[34] = Elimination half life in Sprague-Dawley rat at 10 mg/kg, iv; type: ADME, organism-based; parameters: dose 10 mg/kg, route intravenous; conditions: in vivo, read-out: beta t1/2 (converted)
[35] = AUC (0 to t) in Sprague-Dawley rat at 10 mg/kg, iv; type: ADME, organism-based; parameters: dose 10 mg/kg, route intravenous; conditions: plasma
[36] = Tmax in Sprague-Dawley rat at 10 […], iv; type: ADME, organism-based; conditions: in vivo
[37] = Cmax in Sprague-Dawley rat at 10 mg/kg, iv; type: ADME, organism-based; parameters: dose 10 mg/kg, route intravenous; conditions: in vivo

Row | Structure (SMILES) | IC50 [1] | bioavailability [2] | CL [4] | MRT [8] | AUCt [12] | KSV [17] | Kq [17] | inhibition in vivo at 50 mg/kg/day [18] | Activity [19] | fold change (FC) [20] | fold change (FC) [21] | fold change (FC) [22] | logP [23] | fold change (FC) [24] | Ratio CC50/IC50 [25] | CC50 at 72 h [26] | CC50 at 72 h [27] | IC50 [28] | also measured
1 | CC1(c2ccc(Nc3nc(N4CCCCC4)nc(N4CCCCC4)n3)cc2)NC(=O)c2ccccc2N1 (stereo unspecified) | 7.05 µM | 5.75% | 1.79 L/h/kg | 3.01 h | 0.327 µg·h/mL | 10 ×10⁴ L/mol | 10 ×10¹² L/mol/s | 73.2% | 15.72 µM | 2.8 | >3 | >9 | 6.23 | 6 | >101.26 | > 400 µM | > 400 µM | 3.95 µM | CL [3]: 1.77 L/h/kg; Vdss [5]: 5.44 L/kg; Vdss [6]: 5.39 L/kg; MRT [7]: 3.07 h; beta t1/2 [9]: 0.84 h; half-life [10]: 1.26 h; AUC(0-t) [11]: 2.84 µg·h/mL; Tmax [13]: 4.8 min; Tmax [14]: 2 h; Cmax [15]: 1.83 µg/mL; Cmax [16]: 0.108 µg/mL
2 | CN1CCN(c2ccc(-c3cc(-c4ccc(C5NC(=O)c6ccccc6N5)cc4)nc(N)n3)cc2)CC1 (stereo unspecified) | 1.75 µM | – | – | – | – | – | – | – | – | – | – | – | – | – | 15.16 | 8.32 µM | 10.2 µM | 0.65 µM | Ratio IC50 [29]: 13
3 | CCCCCCCCCCCCCCCCOP(=O)([O-])OCC[N+](C)(C)C [MILTEFOSINE] | 1.05 µM | – | – | – | – | – | – | – | – | – | – | – | -0.21 | – | 1.48 | – | 12.4 µM | 8.4 µM | inhibition in vivo at 30 mg/kg/day [30]: 98.1%
4 | CC1(c2ccc(Nc3nc(N4CCc5ccccc5C4)nc(N4CCc5ccccc5C4)n3)cc2)NC(=O)c2ccccc2N1 (stereo unspecified) | > 40 µM | 2.94% | 0.36 L/h/kg | 8.44 h | 0.716 µg·h/mL | 6 ×10⁴ L/mol | 6 ×10¹² L/mol/s | 80.9% | 22.58 µM | >3 | 5 | 11 | 7.19 | >8 | >91.11 | > 400 µM | > 400 µM | 4.39 µM | clearance [31]: 0.33 L/h/kg; Vd [32]: 1.95 L/kg; MRT [33]: 5.88 h; half-life [34]: 12.8 h; AUC(0-t) [35]: 24.3 µg·h/mL; Tmax [36]: 4.8 min; Cmax [37]: 63.3 µg/mL

Source: ChEMBL document CHEMBL2380205, “Discovery of a new class of natural product-inspired quinazolinone hybrid as potent antileishmanial agents” (J Med Chem, 2013)
